“Also recorded” adds a separate entry of the source. Where a name gives a salt, the structure may show the parent alone. Read-outs that look alike come from different tables or passages of the source.
Assays:
[1] = tested on: hind limb tonic extensor component of the audiogenic seizure; assay: Audiogenic seizure in mice (tonic extensor component), single oral dose; format: in vivo, male O'Grady strain mice; settings: for ED50: Mus musculus, po; for activity over time / time of peak effect: single oral dose, 1, 4 and 24 hours
Source text: (§1) In this test, male O'Grady strain mice (14-16 grams) especially bred for susceptibility to audiogenic seizures were used as subjects. The audiogenic seizure apparatus consisted of a wooden box enclosing a metal container with two doorbells attached to the upper section. The test consisted of administering the test drug orally as a suspension in 10% olive oil and 90% Methocel (0.5%) to ten animals per dose. […] The test drugs included the present compound, DMHP, DPH, Δ^9 -THC and Phenobarbital.

[2] = tested on: all components of audiogenic seizures; assay: Audiogenic seizure test in mice (complete seizure protection); format: in vivo, male O'Grady strain mice; settings: single oral dose; for ED50: Mus musculus
Source text: as §1
The animals, diluent, apparatus and experimental procedure described in Example 1 above were used for the present test in mice to determine the complete seizure protection of the various compounds. The compounds tested included the present compound, DMHP and Δ^9 -THC.

[3] = tested on: hind limb tonic extension seizure (supramaximal electroshock); assay: Supramaximal electroshock seizures in rats (single oral dose); format: in vivo, male Long-Evans rats; settings: for ED50: Rattus norvegicus, rats, single oral dose
Source text: In this test, male Long-Evans rats (170-190 grams) were orally administered the test drugs as a suspension in olive oil and Methocel 0.5% to 5 or 10 animals per dose. At one and four hours post drug administration each animal received an electroshock (150 milliamp for 0.2 seconds) through corneal electrodes to produce a hind limb tonic extension seizure. The animals were considered protected when the hind limb tonic extensor component was blocked.

[4] = tested on: hind limb tonic extensor component of the audiogenic seizure; assay: Audiogenic seizure test in mice (5-day chronic administration); format: in vivo, male O'Grady strain mice; settings: for ED50: Mus musculus, fifth day, 4 hr post drug administration, read-out: Five day chronic audiogenic seizure test ED50 4 hr; for ED50 / activity in abolishing hind limb tonic extensor component: mice, oral; for activity in abolishing hind limb tonic extensor component: five consecutive days
Source text: as §1
In this test, the animals, diluent and apparatus described in Example 1, above, were used. The experimental procedure consisted of administering the test drugs orally for four days at 0.5 mg./kg. for the present compound and DMHP, and 1.0 and 0.1 mg./kg., respectively, for DPH and phenobarbital. On the fifth day of testing a dose response study (N=10 animals per dose) was initiated to obtain the ED50 for each compound.

[5] = tested on: hind limb tonic extension seizure (supramaximal electroshock); assay: Supramaximal electroshock test in rats (5-day chronic administration); format: in vivo, male Long-Evans rats; settings: for ED50: Rattus norvegicus, 5-day oral administration, fifth day, 4 hr post drug administration, read-out: ED50 4 hr (50% of animals protected from hind limb tonic extension)
[6] = Side effects (sedation and irritability) on repeated medication; format: in vivo; settings: within a few days of medication
[7] = 1 h, mice, single oral dose, 1 hr post drug administration, read-out: 1 hr ED50 (50% of animals protected from hindlimb tonic extension)
[8] = 4 h, mice, single oral dose, 4 hr post drug administration, read-out: 4 hr ED50 (50% of animals protected from hindlimb tonic extension)
[9] = 24 h, mice, single oral dose, 24 hr post drug administration, read-out: 24 hr ED50 (50% of animals protected from hindlimb tonic extension)
[10] = 1 hr, read-out: 1 hr ED50 (50% of animals protected from hindlimb tonic extension)
[11] = 4 hr, read-out: 4 hr ED50 (50% of animals protected from hindlimb tonic extension)
[12] = 4 hr post drug administration, read-out: Complete seizure protection 4 hr ED50
[13] = 5-day oral, 2.5 mg./kg. (present compound, DMHP), 30.0 mg./kg. (DPH)

| SMILES | ED50 [1, 7] | ED50 [1, 8] | ED50 [1, 9] | activity over time / time of peak effect ([1]; mice) | ED50 [3, 10] | ED50 [3, 11] | ED50 ([3]; 24 hr, read-out: 24 hr ED50) | ED50 [2, 12] | ED50 [4] | tolerance to anticonvulsant activity [5, 13] | ED50 [5] | activity in abolishing hind limb tonic extensor component [4] | other results |
| --- | --- | --- | --- | --- | --- | --- | --- | --- | --- | --- | --- | --- | --- |
| CCCCCc1cc(O)c2c(c1)OC(C)(C)C1CCC(C)=CC21 (single isomer, unassigned) [Δ9-THC] | 5 mg/kg | 38.8 mg/kg | > 100 mg/kg | most active at the one hour period | 53.3 mg/kg | 40.6 mg/kg | > 200 mg/kg |  |  |  |  |  | ED50 ([2]; 1 h, one hour data, read-out: Complete seizure protection ED50 (one hour data)): 6.5 mg/kg |
| CCCCCC(C)C(C)c1cc(O)c2c(c1)OC(C)(C)C1=C2CC(C)CC1 (stereo not shown) [DMHP] | 6.7 mg/kg | 2.9 mg/kg | 15.1 mg/kg | active over a prolonged period (24 hours) | 4.6 mg/kg | 7.5 mg/kg | 66.8 mg/kg | 6.7 mg/kg | 1.6 mg/kg | slight tolerance | 26.7 mg/kg |  |  |
| O=C1NC(=O)C(c2ccccc2)(c2ccccc2)N1 [DPH, diphenylhydantoin] | 1.7 mg/kg | 3.3 mg/kg | 11 mg/kg |  | 23 mg/kg | 62.2 mg/kg | > 200 mg/kg |  | < 0.5 mg/kg |  | 26.6 mg/kg |  |  |
| CCC1(c2ccccc2)C(=O)NC(=O)NC1=O [Phenobarbital] | 1.9 mg/kg | 0.3 mg/kg | 6 mg/kg | peak effect at four hours post drug administration | 22 mg/kg | 18 mg/kg | > 40 mg/kg |  | 0.1 mg/kg |  |  | very active |  |
| CCCCCC(C)C(C)c1cc(OC(=O)CCCN2CCCCCC2)c2c(c1)OC(C)(C)C1=C2CC(C)CC1 (stereo not shown) [Present compound, 3-(3-methyl-2-octyl)-1-[4-(1-homopiperidine)butyryloxy]-6,6,9-trimethyl-7,8,9,10-tetrahydro-6H-dibenzo[b,d]pyran hydrochloride] | 6.8 mg/kg | 1.1 mg/kg | 55.9 mg/kg |  | 60.6 mg/kg | 7.4 mg/kg | > 150 mg/kg | 7.8 mg/kg | 0.7 mg/kg | slight tolerance | 37.2 mg/kg | marked activity in abolishing the hind limb tonic extensor component | ED50 ([1]; daily, general description, read-out: oral ED50 for blocking the tonic extensor component of audiogenic seizures): 1 to 2 mg/kg; 24 hr ED50 (50% of animals protected from hindlimb tonic extension) ([1]; mice, single oral dose, 24 hr post drug administration, hydrochloride, 1440 min): 55.5 mg/kg; anti-convulsant activity ([1]; mouse audiogenic seizure test, hydrochloride): marked activity in antagonizing the hind limb tonic extensor component; also recorded: potent anti-convulsant activity; antagonism of preconvulsive running [2]: preconvulsive running was not antagonized; retention of anticonvulsant activity on repeated medication ([4]; audiogenic seizure test in mice): retained without any loss of the potency; anti-convulsant activity ([3]; rat supramaximal electroshock test, hydrochloride): potent anti-convulsant activity; also recorded: marked activity in preventing the hind limb tonic extension feature of supramaximal electroshock; tolerance to anticonvulsant activity ([5]; daily higher doses such as 5.0 and 10.0 mg./kg.): increase in tolerance; tolerance to side effects of sedation and irritability [6]: marked tolerance develops to the side effects of sedation and irritability within a few days of medication |

Reference: patent publication US4039674A, “3-(3-Methyl-2-octyl)-1-[4-(1-ho mopiperidine)butyryloxy]-6,6,9-trimethyl-7,8,9,10-tetrahydro-6H-dibenzo [b,d]pyran hydrochloride as an anticonvulsant agent” (Abbott Laboratories, priority 1976, dated 1977)
